Reference: US6593342B1, “Pharmaceutical compositions comprising 2-quinolones” (Laboratoire L. Lafon, priority 1998, dated 2003)

Tested on: clonogenic cells
Experiment: Clonogenic test, overall statement
Format: cell-based
Details: in words
Excerpt: 1—Interaction (Stimulation or Inhibition of Proliferation) With the Generation of Clonogenic Cells (Clonogenic Test)
The test used is that described by Hamburger et al. (Science, 1977; 197, 461-463) and Salmon et al. (New England J. Med., 298, 1321-1327). A cell is considered clonogenic if it has the capacity to proliferate and to give rise to a cell colony. “Human tumor stem cells” are the cells which are the source of the neoplastic cells which constitute a given tumor. These tumor stem cells are responsible for the relapse processes which may be observed after surgical resection of primary tumors and are also responsible for the formation of metastases. […]
The influence of the compounds of formulae (I) and (Ia) on the growth of the cell colonies obtained by culturing, for example, the mammalian tumor lines MCF7 and MXT and the colorectal line HT-29 on the semi-liquid culture medium known as “soft agar” was measured. […]
The tumor cell lines studied are maintained in culture in 25 cm^2 falcon dishes. […] The percentage of live cells is determined after staining with trypan blue. […] After fixing for 24 hours, the formalin is evaporated off and the number of stained cell colonies, thus consisting of metabolically active cells, and whose surface area is greater than 100 μm^2, is determined using an inverted microscope. […]

| Structure (SMILES) | effect on the average number of clones of clonogenic cells relative to the reference situation |
| --- | --- |
| CCN(CC)C(=O)CCn1c(=O)c(-c2ccc(OC)cc2)cc2c(OC)cc(OC)cc21 [CRL8283, N,N-Diethyl-3-[5,7-dimethoxy-3-(4-methoxy-phenyl)-2-oxo-1,2-dihydro-1-quinolinyl]propanamide] | reduce |
| CCN(CC)C(=O)Cn1c(=O)c(-c2ccc(OC)cc2)cc2c(OC)cc(OC)cc21 [CRL8315, N,N-Diethyl-2-[5,7-dimethoxy-3-(4-methoxy-phenyl)-2-oxo-1,2-dihydro-1-quinolinyl]acetamide] | increase |
